Measurements reported in patent publication US20180185408A1, “ANTIFUNGAL NYLON-3 POLYMERS AND COMBINATION THERAPY USING THEM TO TREAT FUNGAL INFECTIONS” (priority 2016, published 2018).
Values after ≈ are worked out from the molar mass of the structure shown. Values joined by “and” are separate entries in the source; they are usually repeats but may differ in a detail not shown here. Identical values can stand only once. Like-named read-outs stand apart in the source and are kept apart here.

Key:
Format in all cases: cell-based
[1] = test system: Cryptococcus neoformans; test: MIC by broth microdilution (CLSI M27-A3); settings: for MIC: […]10^3 cells/mL
[2] = test system: Cryptococcus gattii; test: Minimum fungicidal concentration (MFC), plating after MIC assay; settings: Cryptococcus gattii, Sensitive, RPMI 1640 (0.2% Glucose), […]10^3 cells/mL, 37° C., read-out: MFC
[3] = test system: Candida lusitaniae; test: as above; settings: Clavispora lusitaniae, C. Lusitania (CL3), Sensitive; RPMI 1640 (0.2% Glucose); […]10^5 cells/mL; 30° C.; read-out: MFC
[4] = test system: Candida albicans; test: as above
[5] = test system: Cryptococcus neoformans; test: as above
[6] = test system: Cryptococcus spp.; test: MIC and MFC by broth microdilution, summary over Cryptococcus strains
[7] = test system: Candida spp.; test: MIC and MFC by broth microdilution, summary over Candida strains
[8] = test system: Cryptococcus amylolentus; test: MIC100 against yeast (CLSI M27-A3)
[9] = test system: Candida lusitaniae; test: MIC by broth microdilution (CLSI M27-A3)
[10] = test system: Candida albicans; test: MIC by broth microdilution (CLSI M27-A3); design: polymer efficacy against budding yeasts, 50%: unit not given here; settings: for MIC: read-out: MIC
[11] = test system: filamentous fungi; test: MIC100 against non-Aspergillus filamentous fungi (CLSI M38-A2)
[12] = test system: Cryptococcus gattii; test: MIC by broth microdilution (CLSI M27-A3); settings: Cryptococcus gattii, […]10^3 cells/mL, read-out: MIC
[13] = test system: Trichophyton tonsurans; test: MIC100 against dermatophytes (modified CLSI M38-A); settings: CBS112818; Trichophyton tonsurans isolate CBS 112818
Description: (§1) The final group of fungi tested for sensitivity to nylon-3 polymers were dermatophytes. In contrast to the other filamentous fungi tested, three of these isolates were evaluated following a modified version of the CLSI M38-A methodology (using hyphal fragments in liquid culture, because of difficulties in obtaining conidia). […] Mixed efficacy of the nylon-3 polymers was observed across the four species of dermatophytes tested. […] The activity against P. destructans, the causative agent of White Nose syndrome in bats, and just one of many emerging fungal pathogens threatening wildlife is encouraging because there are few options at present for preventing the spread of this devastating pathogen. The facility with which nylon-3 polymers can be modified could provide opportunities for the development of topical agents with high specificity for particular fungi.

[14] = test system: Microsporum canis; test: MIC100 against dermatophytes (modified CLSI M38-A); settings: Microsporum canis isolate UW10
Description: as §1

Question: Which results are given for `OC(Cn1cncn1)(Cn1cncn1)c1ccc(F)cc1F` [FLC, fluconazole]?
Answer: polymer efficacy against budding yeasts, 50% [1]: >64; polymer efficacy against budding yeasts, 50% ([1]; C. neoformans CN1, Clinical isolate, Azole susceptible): 4; MIC ([1]; Cryptococcus neoformans, 48 h, C21F3, 30°C, OD600 48 h): 1.6 µg/mL; MIC ([1]; Cryptococcus neoformans, 48 h, C21F3, 30°C, OD600 48 h, Table 15): 5.2 µM; MIC ([1]; Cryptococcus neoformans, 48 h, H99, 30°C, OD600 48 h): 3.1 µg/mL; MIC ([1]; Cryptococcus neoformans, 48 h, H99, 30°C, OD600 48 h, Table 15): 10.1 µM; MIC ([1]; Cryptococcus neoformans, 48 h, JEC21, 30°C, OD600 48 h): 1.6 µg/mL; MIC ([1]; Cryptococcus neoformans, 48 h, JEC21, 30°C, OD600 48 h, Table 15): 5.2 µM; MIC ([1]; Cryptococcus neoformans, C. neoformans (C21F3), 30°C): 5.2 µM; MIC ([1]; Cryptococcus neoformans, C. neoformans (H99), Sensitive, RPMI 1640 (0.2% Glucose), 37° C.): 3.1 µg/mL; MIC ([1]; Cryptococcus neoformans, C. neoformans (H99), 30°C): 10.1 µM; MIC ([1]; Cryptococcus neoformans, C. neoformans (JEC21), Sensitive, RPMI 1640 (0.2% Glucose), 37° C.): 1.6 µg/mL; MIC ([1]; Cryptococcus neoformans, C. neoformans (JEC21), 30°C): 5.2 µM; MIC50 ([1]; Cryptococcus neoformans, Cryptococcus neoformans CN1): 4 µg/mL (≈ 13.1 µM); MFC ([2]; C. gattii (C751)): 37.5 µg/mL (≈ 122 µM); MFC ([2]; C. gattii (WM275)): > 100 µg/mL; MFC [3]: 50 µg/mL (≈ 163 µM); MFC ([4]; C. albicans (E4), Amp B Resistant, RPMI 1640 (0.2% Glucose), […]10^5 cells/mL, 30° C.): >200 µg/mL; MFC ([4]; C. albicans (Gu5), Fluconazole Resistant, RPMI 1640 (0.2% Glucose), […]10^5 cells/mL, 30° C.): >200 µg/mL; MFC ([4]; C. albicans (K1), Fluconazole Resistant, RPMI 1640 (0.2% Glucose), […]10^5 cells/mL, 30° C.): >200 µg/mL; MFC ([4]; C. albicans (SCG5314), Sensitive, RPMI 1640 (0.2% Glucose), […]10^5 cells/mL, 30° C.): >200 µg/mL; MFC ([4]; Candida albicans, SC5314, read-out: MFC): > 200 µg/mL and > 653 µM; MFC ([4]; Candida albicans, read-out: MFC): > 200 µg/mL and > 653 µM; MFC ([4]; E4, […]10^5 cells/mL, 30°C, avg., listed as FLU): >200 µg/mL; MFC ([4]; E4, […]10^5 cells/mL, 30°C, avg., listed as FLU, read-out: MFC): >653 µM; MFC ([4]; E4, […]10^5 cells/mL, 30°C, trial 1, listed as FLU): >200 µg/mL; MFC ([4]; E4, […]10^5 cells/mL, 30°C, trial 1, listed as FLU, read-out: MFC): >653 µM; MFC ([4]; E4, […]10^5 cells/mL, 30°C, trial 2, listed as FLU): >200 µg/mL; MFC ([4]; E4, […]10^5 cells/mL, 30°C, trial 2, listed as FLU, read-out: MFC): >653 µM; MFC ([4]; Gu5, […]10^5 cells/mL, 30°C, avg., listed as FLU): >200 µg/mL; MFC ([4]; Gu5, […]10^5 cells/mL, 30°C, avg., listed as FLU, read-out: MFC): >653 µM; MFC ([4]; Gu5, […]10^5 cells/mL, 30°C, trial 1, listed as FLU): >200 µg/mL; MFC ([4]; Gu5, […]10^5 cells/mL, 30°C, trial 1, listed as FLU, read-out: MFC): >653 µM; MFC ([4]; Gu5, […]10^5 cells/mL, 30°C, trial 2, listed as FLU): >200 µg/mL; MFC ([4]; Gu5, […]10^5 cells/mL, 30°C, trial 2, listed as FLU, read-out: MFC): >653 µM; MFC ([4]; K1, […]10^5 cells/mL, 30°C, avg., listed as FLU): >200 µg/mL; MFC ([4]; K1, […]10^5 cells/mL, 30°C, avg., listed as FLU, read-out: MFC): >653 µM; MFC ([4]; K1, […]10^5 cells/mL, 30°C, trial 2, listed as FLU): >200 µg/mL; MFC ([4]; K1, […]10^5 cells/mL, 30°C, trial 2, listed as FLU, read-out: MFC): >653 µM; MFC ([4]; SC5314, […]10^5 cells/mL, 30°C, avg., listed as FLU): >200 µg/mL; MFC ([4]; SC5314, […]10^5 cells/mL, 30°C, avg., listed as FLU, read-out: MFC): >653 µM; MFC ([4]; SC5314, […]10^5 cells/mL, 30°C, trial 1, listed as FLU): >200 µg/mL; MFC ([4]; SC5314, […]10^5 cells/mL, 30°C, trial 1, listed as FLU, read-out: MFC): >653 µM; concentration at which strain was killed (MFC) ([5]; C21F3): ~5 µM; MFC ([5]; Cryptococcus neoformans, C. neoformans (C21F3), Rapamycin Resistant, RPMI 1640 (0.2% Glucose), […]10^3 cells/mL, 37° C.): 1.6 µg/mL (≈ 5.22 µM); MIC ([6]; Cryptococcus): ≤ 10 µM; MFC ([6]; Cryptococcus test strains (FLC: all strains except C21F3), read-out: MFC): > 100 µM; MFC ([7]; Candida resistant strains (totally resistant)): > 654 µM; MIC and MFC values ([7]; Candida sensitive strains): low μM; MIC50 ([8]; CBS6039, Cryptococcus amolyentous CBS 6039): 16 µg/mL (≈ 52.2 µM); MIC50 ([8]; CBS6273, Cryptococcus amolyentous CBS 6273): 16 µg/mL (≈ 52.2 µM); MIC ([9]; CL3, […]10^3 cells/mL, 35°C, OD600 24 h, avg., listed as FLU): >200 µg/mL; MIC ([9]; CL3, […]10^3 cells/mL, 35°C, OD600 24 h, avg., listed as FLU, read-out: MIC): >653.0 µM; MIC ([9]; CL3, […]10^3 cells/mL, 35°C, OD600 24 h, trial 2, listed as FLU): >200 µg/mL; MIC ([9]; CL3, […]10^3 cells/mL, 35°C, OD600 24 h, trial 2, listed as FLU, read-out: MIC): >653.0 µM; MIC ([9]; CL3, […]10^5 cells/mL, 30°C, OD600 48 h, avg., listed as FLU): 0.8 µg/mL; MIC ([9]; CL3, […]10^5 cells/mL, 30°C, OD600 48 h, avg., listed as FLU, read-out: MIC): 2.6 µM; MIC ([9]; CL3, […]10^5 cells/mL, 30°C, OD600 48 h, trial 2, listed as FLU): 0.8 µg/mL; MIC ([9]; CL3, […]10^5 cells/mL, 30°C, OD600 48 h, trial 2, listed as FLU, read-out: MIC): 2.6 µM; MIC ([9]; Clavispora lusitaniae, 24 h, read-out: MIC): > 200 µg/mL and > 653 µM; MIC ([9]; Clavispora lusitaniae, 48 h, read-out: MIC): 0.8 µg/mL and 2.6 µM; MIC50 ([10]; ATCC90028, Candida albicans ATCC 90028): 1 µg/mL (≈ 3.27 µM); polymer efficacy against budding yeasts, 50% ([10]; C. albicans CA1, ATCC90028, Blood): 1; polymer efficacy against budding yeasts, 50% ([10]; C. albicans CA2, SC5314): 0.25; polymer efficacy against budding yeasts, 50% ([10]; C. albicans CA3, Blood, Azole resistant): >64; MIC50 ([10]; Candida albicans CA3, Resistance Azole): > 64 µg/mL; MIC ([10]; Candida albicans, C. albicans (E4), Amp B Resistant, RPMI 1640 (0.2% Glucose), […]10^5 cells/mL, 30° C.): > 200 µg/mL; MIC ([10]; Candida albicans, C. albicans (E4), […]10^3 cells/mL, 35°C): > 654 µM; MIC ([10]; Candida albicans, C. albicans (Gu5), Fluconazole Resistant, RPMI 1640 (0.2% Glucose), […]10^5 cells/mL, 30° C.): > 200 µg/mL; MIC ([10]; Candida albicans, C. albicans (Gu5), […]10^3 cells/mL, 35°C): > 654 µM; MIC ([10]; Candida albicans, C. albicans (K1), Fluconazole Resistant, RPMI 1640 (0.2% Glucose), […]10^5 cells/mL, 30° C.): > 200 µg/mL; MIC ([10]; Candida albicans, C. albicans (K1), […]10^3 cells/mL, 35°C): > 654 µM; MIC ([10]; Candida albicans, C. albicans (SCG5314), Sensitive, RPMI 1640 (0.2% Glucose), […]10^5 cells/mL, 30° C.): < 0.2 µg/mL; MIC50 ([10]; Candida albicans, SC5314): 0.25 µg/mL (≈ 0.816 µM); MIC ([10]; Candida albicans, SC5314, C. albicans (SC5314), […]10^3 cells/mL, 35°C): > 654 µM; MIC50 ([11]; Cryptococcus depauperatus, CBS7855, Filobasidiella depauperata isolate CBS 7855, 50% reduction in growth): 64 µg/mL (≈ 209 µM); MIC ([12]; 48 h, C751, 30°C, OD600 48 h, Table 15): 5.2 µM; MIC ([12]; 48 h, C751, 30°C, OD600 48 h): 1.6 µg/mL; MIC ([12]; 48 h, WM276, 30°C, OD600 48 h, Table 15): 2.6 µM; MIC ([12]; 48 h, WM276, 30°C, OD600 48 h): 0.8 µg/mL; MIC ([12]; C. gattii (C751), Sensitive, RPMI 1640 (0.2% Glucose), 37° C.): 1.6 µg/mL; MIC ([12]; C. gattii (C751), 30°C): 5.2 µM; MIC ([12]; C. gattii (WM275), Sensitive, RPMI 1640 (0.2% Glucose), 37° C.): 0.8 µg/mL; MIC ([12]; C. gattii (WM276), 30°C): 2.6 µM

Question: For `CCC(C)n1ncn(-c2ccc(N3CCN(c4ccc(OCC5COC(Cn6cncn6)(c6ccc(Cl)cc6Cl)O5)cc4)CC3)cc2)c1=O` (stereo not shown) [Itraconazole, itraconazole], which MIC [13] is on record?
Answer: 0.13 µg/mL (≈ 0.184 µM)

Question: And the MIC [14]?
Answer: 1 µg/mL (≈ 1.42 µM)

Question: And the MIC ([11]; Penicillium expansum)?
Answer: 1 µg/mL (≈ 1.42 µM)

Question: What about the MIC ([11]; Talaromyces marneffei) of the same molecule?
Answer: 0.125 µg/mL (≈ 0.177 µM)
